Here are results for four molecules from patent US4372970A, “Benzofuran acetic acid esters and their arthropocidal compositions” (Shell Internationale Research Maatschappij B.V., priority 1979, dated 1983).

For one series, the system named is Aedes aegypti. Briefly: Larvicidal activity against Aedes aegypti (kill after 24 hours, LC50, relative to Resmethrin). The note with it: Aedes aegypti 3 day old larvae, from LC50. It is filed as in vivo. The procedure:
(§1) The insecticidal activities of the compounds of the Examples has been shown by the following tests in four species of insects, namely Aedes aegypti, Musca domestica, Blattella germanica, and Tribolium castaneum.
A 0.2 cm^3 sample of a solution of test compound in AR acetone was applied to water (200 cm^3) containing 20 (3 day old) larvae. Kill was recorded after 24 hours. Solutions of different concentration were tested from which the concentration of solution which gives 50% kill (LC50) was determined.
(§2) The results are all expressed as activities relative to the activity of Resmathrin (assigned activity=100), determined by the methods described. [formula]

The next series concerns Blattella germanica. In words: Topical activity against Blattella germanica (24 hours, LC50, relative to Resmethrin). It counts as in vivo. The note with it: Blattella germanica 1-4 week old adult males, from LC50. As for the experimental part:
as §1
A 2 μl drop of a solution of the test compound in AR acetone was applied between the rear coxae of 1-4 week old adult males. Knockdown was recorded after 24 hours. Solutions of different concentration were tested from which the concentration of solution which gives 50% kill (LC50) was determined.
as §2

In series [1] the test system is Musca domestica. In words: Topical activity against Musca domestica, compound alone (24 hours, LC50, relative to Resmethrin). The note with it: Musca domestica 3-day old adult females, without synergist, from LC50. It is filed as in vivo. The procedure:
as §1
(§3) (i) A 1 μl drop of a solution of test compound in AR acetone (high purity acetone) was applied to the dorsal thorax of 3-day old adult females. Knockdown was recorded after 24 hours. Solutions of different concentration were tested from which the concentration of solution and therefore the amount of compound which gives 50% kill (LC50) was determined.
as §2

For series [2], the system named is Musca domestica. In words: Topical activity against Musca domestica with synergist piperonyl butoxide (24 hours, LC50, relative to Resmethrin). It counts as in vivo. The note with it: Musca domestica 3-day old adult females, with 0.5% w/v piperonyl butoxide, from LC50. The procedure: as §1, §3
(ii) Similar tests were carried out with the amendment that to each test solution, 0.5% w/v of commercial insecticide synergist, piperonyl butoxide, was added.
as §2

Another series deals with Tribolium castaneum. Briefly: Topical activity against Tribolium castaneum (knockdown after 48 hours, LD50, relative to Resmethrin). It is filed as in vivo. The note with it: Tribolium castaneum adults, from LD50. As for the experimental part: as §1
A 1 μl drop of a solution of test compound in AR acetone was applied topically to adult insects. Knockdown was recorded after 48 hours. Solutions of different concentrations were tested from which the concentration of solution which gives 50% knockdown (LD50) was determined.
as §2

For a further series, the system named is Megoura vicae. In words: Knockdown of Megoura vicae (dip test). It is filed as in vivo. The note with it: Megoura vicae adults, knockdown after 24 hours. The source says:
(§4) The activities of some of the compounds of the Examples has been shown in the following tests in three species of phytophagous arthropods, namely Megoura vicae, Plutella xylostella, Tetranychus cinnabarinus.
(§5) Aqueous suspensions of test compound were made by adding a solution of test compound in AR acetone to a solution of TWEEN 80 (200 p.p.m.) in water.
Adult insects were dipped individually for 4 seconds in the aqueous suspension of test compound and then placed on a filter paper in a Petri dish (9.0 cm diameter) with a p.t.f.e. rim. A 5.0 cm long piece of broad bean stem was added and the lid was put on. Knockdown was recorded after 24 hours.

The subject of the next series is Plutella xylostella. In words: Knockdown of Plutella xylostella (cabbage leaf dip test). The note with it: foliar, Plutella xylostella 3rd instar larvae, knockdown after 24 hours, read-out: Plutella % KD at 25.0 ppm. It is filed as in vivo.
Description: as §4, §5
A 9.0 cm square of cabbage leaf was dipped for 4 seconds in the aqueous suspension of the test compound, and allowed to dry. The leaf was placed on filter paper in a Petri dish (9.0 cm). Five 3rd instar larvae were placed on the leaf, and the dish was placed in a polythene bag containing a wet cotton-wool pad. Knockdown was recorded after 24 hours.

The next series deals with Tetranychus cinnabarinus. In words: Activity against Tetranychus cinnabarinus (dwarf French bean leaf dip test). It counts as in vivo. The note with it: foliar, Tetranychus cinnabarinus adult mites, 48 hours, read-out: Tetranychus % KD at 500.0 ppm.
Description: as §4, §5
The two primary leaves of dwarf French beans were reduced to 2.5 cm squares, and they were infested with ca. 20 adult mites. The leaves were then dipped for 4 seconds in the aqueous suspension of the test compound and allowed to dry. Adult mortality was recorded after 48 hours.

The nature of series [3]: Photostability of a deposit exposed to a light source. It is filed as physicochemical. The note with it: times greater than Resmethrin. The source says: Photostability is an important feature when the insecticide is applied to foliage. […] A deposit of selected Examples and Resmethrin was exposed to a light source and tested at increasing time intervals.
The next series has as its system insects. The note with it: about times that of natural pyrethrum; cited from earlier work.
In series [4] the test system is lettuce, cucumber, dwarf French beans, tomato or broad bean. Briefly: Phytotoxicity on foliage. It counts as in vivo. The note with it: 100 p.p.m. on foliage. The source says: Phytotoxicity is an important feature when the insecticide is applied to foliage.

The structures appear in SMILES notation.

On to `CC(C)C(C(=O)OC(C#N)c1cccc(Oc2ccccc2)c1)c1ccc2ccoc2c1` (stereo not drawn) [Example 2, α-Cyano-m-phenoxybenzyl α-isopropylbenzofuran-6-acetate], for which the “Activity Relative to Resmethrin = 100, Aedes” value in the series with Aedes aegypti is 286. The “Activity Relative to Resmethrin = 100, Blattella” value with Blattella germanica is recorded as 459. The “Activity Relative to Resmethrin = 100, Musca Alone” value in the series with Musca domestica [1] was 123. Also, the “Activity Relative to Resmethrin = 100, Musca with Synergist” value with Musca domestica [2] came out at 606. Moreover, the “Activity Relative to Resmethrin = 100, Tribolium” value with Tribolium castaneum is listed as 583. In addition, in the series on Megoura vicae, the “Megoura % KD at 1.0 ppm” value amounted to 97.5%. Moreover, the mortality at 25 ppm in the series on Plutella xylostella was found to be 97.5%. Besides, the mortality at 500 ppm in the series with Tetranychus cinnabarinus stood at 83.7%. Also, the “photostability half-life relative to Resmethrin” value in series [3] was determined as 17.5 times.
`CC(C)C(C(=O)OC(C#N)c1cccc(Oc2ccccc2)c1)c1ccc2sccc2c1` (stereo not drawn) [Example 4, α-Cyano-m-phenoxybenzyl α-isopropylbenzo(b)thiophene-5-acetate]: the “Activity Relative to Resmethrin = 100, Aedes” value in the series with Aedes aegypti was 105. In addition, the “Activity Relative to Resmethrin = 100, Blattella” value in the series on Blattella germanica was 62. Also, in the series on Musca domestica [1], the “Activity Relative to Resmethrin = 100, Musca Alone” value is recorded as 16. In addition, the “Activity Relative to Resmethrin = 100, Musca with Synergist” value with Musca domestica [2] was 400. The “photostability half-life relative to Resmethrin” value in series [3] was determined as 21.5 times.
For `CC(C)=CC1C(C(=O)OCc2coc(Cc3ccccc3)c2)C1(C)C` (stereo not shown) [Resmethrin, 5-benzyl-3-furylmethylchrysanthemumate], in the series with insects, the “activity relative to natural pyrethrum” value is recorded as “about 20 times”.
Regarding `CC(C)C(C(=O)OC(C#N)c1cccc(Oc2ccccc2)c1)c1ccc(Cl)cc1` (stereo not drawn) [fenvalerate, α-cyano-3-phenoxy-benzyl 2-(4-chlorophenyl)-3-methylbutyrate], in [4], the phytotoxicity result is on record as “phytotoxicity was observed”.
